Earlier results as cited in patent US20240315993A1, “ANTIPARASITIC COMPOUNDS” (Intervet Inc., priority 2021, published 2024).

Columns and labels:
[1] = test system: Cabbage Looper (Trichoplusia ni); conditions: Cabbage Looper second instar larvae, 128-well diet tray, 50 μg/cm^2, five to seven days, average of eight wells; cited from earlier work
[2] = test system: Beet Armyworm (Spodoptera exigua); conditions: Beet Armyworm second instar larvae, 128-well diet tray, 50 μg/cm^2, five to seven days, average of eight wells; cited from earlier work
[3] = test system: Yellow Fever Mosquito (Aedes aegypti); conditions: Aedes aegypti larvae about 1 day old, 96-well plate, scored after 3 days; cited from earlier work

Row | Compound | Test B: Bioassay on CL, percent mortality rating [1] | Test A: Bioassay on BAW, percent mortality rating [2] | Test C: Bioassay on Yellow Fever Mosquito, mortality rating [3]
1 | O=C(Nc1ccc2[nH]c(C(F)(F)F)cc2c1)c1cc(NC(=O)C2C(c3cc(Cl)cc(Cl)c3)C2(Cl)Cl)ccc1Cl (stereo not drawn) [c46] | A (50-100) | A (50-100) | D (No activity noticed in this bioassay)
2 | CNc1ccc(NC(=O)c2cc(NC(=O)C3C(c4cc(Cl)c(Cl)c(Cl)c4)C3(Cl)Cl)ccc2Cl)c(C)c1 (stereo not drawn) [c47] | A (50-100) | A (50-100) | A (80-100)
3 | CNc1ccc(N(C)C(=O)c2cc(NC(=O)C3C(c4cc(Cl)cc(Cl)c4)C3(Cl)Cl)ccc2Cl)c(C)c1 (stereo not drawn) [c48] | A (50-100) | A (50-100) | D (No activity noticed in this bioassay)
4 | CNc1ccc(N(C)C(=O)c2cc(NC(=O)C3C(c4cc(Cl)c(Cl)c(Cl)c4)C3(Cl)Cl)ccc2Cl)c(C)c1 (stereo not drawn) [c49] | A (50-100) | A (50-100) | A (80-100)
5 | N#Cc1cc([N+](=O)[O-])ccc1NC(=O)c1cc(NC(=O)C2C(c3cc(Cl)cc(Cl)c3)C2(Cl)Cl)ccc1Cl (stereo not drawn) [c51] | A (50-100) | A (50-100) | A (80-100)
6 | Cc1ccc(NC(=O)c2cc(NC(=O)C3C(c4cc(Cl)cc(Cl)c4)C3(Cl)Cl)ccc2Cl)c([N+](=O)[O-])c1 (stereo not drawn) [c52] | A (50-100) | A (50-100) | A (80-100)
7 | N#Cc1cc(C(F)(F)F)ccc1NC(=O)c1cc(NC(=O)C2C(c3cc(Cl)cc(Cl)c3)C2(Cl)Cl)ccc1Cl (stereo not drawn) [c53] | A (50-100) | A (50-100) | A (80-100)
8 | N#Cc1ccc(NC(=O)c2cc(NC(=O)C3C(c4cc(Cl)cc(Cl)c4)C3(Cl)Cl)ccc2Cl)cc1C(F)(F)F (stereo not drawn) [c54] | A (50-100) | A (50-100) | A (80-100)
9 | O=C(Nc1ccc2c(c1)C(=O)NC2=O)c1cc(NC(=O)C2C(c3cc(Cl)cc(Cl)c3)C2(Cl)Cl)ccc1Cl (stereo not drawn) [c55] | A (50-100) | A (50-100) | D (No activity noticed in this bioassay)
10 | N#Cc1cc(N)ccc1NC(=O)c1cc(NC(=O)C2C(c3cc(Cl)cc(Cl)c3)C2(Cl)Cl)ccc1Cl (stereo not drawn) [c56] | A (50-100) | A (50-100) | A (80-100)
11 | CC(=O)N(C(C)=O)c1ccc(NC(=O)c2cc(NC(=O)C3C(c4cc(Cl)cc(Cl)c4)C3(Cl)Cl)ccc2Cl)c(C#N)c1 (stereo not drawn) [c57] | A (50-100) | A (50-100) | A (80-100)
12 | CNc1ccc(NC(=O)c2cc(NC(=O)C3C(c4cc(Cl)cc(Cl)c4)C3(Cl)Cl)ccc2Cl)c(C#N)c1 (stereo not drawn) [c58] | A (50-100) | A (50-100) | A (80-100)
